The values that follow come from patent US6696482B2, “Formulations for hydrophobic pharmaceutical agents” (Sugen, Inc., priority 1997, dated 2004).

Data set [1] is described as follows: Solubility of the indolinone-based compound in water and excipients. Format: physicochemical. The procedure: An increase in the indolinone-based compound's aqueous solubility in hydrotropic solute solutions like nicotinamide and pyridoxine hydrochloride was observed. It is soluble (15-20 mg/mL) in polar excipients like polyethylene glycols of 300 and 400 MW.
(§1) The indolinone-based compound is a planar aromatic compound and is non-ionizable in the pharmaceutically acceptable range.

Data set [2] relates to VEGF-induced endothelial cell growth. Nature of the data set: Inhibition of VEGF-induced endothelial cell growth. In kind it is cell-based. The following applies: in words. The procedure:
Indolinone-based compounds of the invention have been tested for their ability to activate or inhibit protein kinases in biological assays. The methods used to measure indolinone-based compound modulation of protein kinase function are described in U.S. application Ser. No. 08/702,282, filed Aug. 23, 1996, incorporated herein by reference in its entirety, a including any drawings. In particular, indolinone-based compounds of the invention were tested for their ability to inhibit the FLK protein kinase.

Data set [3] in a line: Log of ratio of octanol to water solubility (individually determined). In kind it is physicochemical. Particulars: solubilities individually determined.
Text: as §1

Converted amounts (≈) assume the structure as drawn. Read-outs that look alike come from different tables or passages of the source.

Regarding `Cc1cc(C)c(C=C2C(=O)Nc3ccccc32)[nH]1` [3-[(2,4-dimethylpyrrol-5-yl)methylene]-2-indolinone], the “influence of pH of the aqueous media on aqueous solubility” value in data set [1] is “did not influence”. In addition, the solubility in data set [1] (aromatic solvents like benzyl alcohol, organic solvent or mixture, read-out: solubility in aromatic solvents) is 10 to 15 mg/mL (≈ 42 to 62.9 mM); in data set [1] (polyethylene glycols of 300 and 400 MW, organic solvent or mixture, read-out: solubility in polar excipients), 15 to 20 mg/mL (≈ 62.9 to 83.9 mM); in data set [1] (polyglycolized lipids like LABPASOL and GELUCIRE, oil or lipid, read-out: solubility in polyglycolized lipids) it was 25 to 30 mg/mL (≈ 105 to 126 mM); in data set [1] (water, read-out: solubility in water), 1e-05 mg/mL (≈ 4.2e-05 mM). Further, the “aqueous solubility in hydrotropic solute solutions” value in data set [1] (hydrotropic solute solutions like nicotinamide and pyridoxine hydrochloride) is on record as “increase”. In addition, the “solubility in water, water miscible non-aqueous solvents, and oils” value in data set [1] (in words) is listed as “low solubility”. For the same molecule, the “inhibition of VEGF-induced endothelial cell growth” value in data set [2] was “specific and potent inhibitor”. For the same molecule, in data set [3], the “log of ratio of octanol to water solubility” value is given as 5.6. With `CC(C)(C)c1ccc(Oc2cccc3nc(N)nc(N)c23)cc1` [Procedure B 1, 2,4-Diamino-5-(4-tert-butylphenoxy)quinazoline], the melting point was 226 to 228 °C. The same measure, in the same setting: to `COc1ccc(Oc2cccc3nc(N)nc(N)c23)cc1OC` [Procedure B 2, 2,4-Diamino-5-(3,4-dimethoxyphenoxy)quinazoline] belongs 301 to 302 °C; to `CN(C)c1cccc(Oc2cccc3nc(N)nc(N)c23)c1` [Procedure B 3, 2,4-Diamino-5-(3-dimethylaminophenoxy)quinazoline], 224 to 225 °C (dec.).

For the molecule `Nc1nc(N)c2c(Oc3ccccc3F)cccc2n1` [Procedure B 4, 2,4-Diamino-5-(2-fluorophenoxy)quinazoline], the melting point is 301 to 303 °C. On the same count and under the same terms, the same measure for `Nc1nc(N)c2c(Oc3cccc(Br)c3)cccc2n1` [Procedure B 5, 2,4-Diamino-5-(3-bromophenoxy)quinazoline]: 292 to 295 °C; for `COc1ccccc1Oc1cccc2nc(N)nc(N)c12` [Procedure B 6, 2,4-Diamino-5-(2-methoxyphenoxy)quinazoline]: 208 to 209 °C (dec.).

Regarding `Nc1nc(N)c2c(Oc3ccc(OCc4ccccc4)cc3)cccc2n1` [Procedure B 8, 2,4-Diamino-5-(4-benzyloxyphenoxy)quinazoline], the melting point is 175 to 177 °C. Same read-out and setting: the same measure for `CN(C)CCCOc1cccc2nc(N)nc(N)c12` [Procedure B 9, 2,4-Diamino-5-(3-dimethylaminopropoxy)quinazoline]: 193 to 195 °C; for `COc1ccc(Oc2cccc3ncnc(N)c23)cc1` [Procedure C 1, 4-Amino-5-(4-methoxyphenoxy)quinazoline]: 192 to 195 °C.

As to `CN(C)c1cccc(Oc2cccc3ncnc(N)c23)c1` [Procedure C 2, 4-Amino-5-(3-dimethylaminophenoxy)quinazoline], the melting point is 179 to 181 °C. Same read-out and setting: the same measure for `Nc1ncnc2cccc(Oc3cccnc3)c12` [Procedure C 3, 4-Amino-5-(3-pyridinoxy)quinazoline]: 245 to 247 °C; for `Nc1ncnc2cccc(Oc3ccc(OCc4ccccc4)cc3)c12` [Procedure C 4, 4-Amino-5-(4-benzyloxyphenoxy)quinazoline]: 170 to 171 °C; for `Nc1ncnc2cccc(Oc3ccc4c(c3)OCO4)c12` [Procedure C 5, 4-Amino-5-(3,4-methylenedioxyphenoxy) quinazoline]: 201 to 203 °C. `Nc1nc(N)c2c(-n3cccc3)cccc2n1` [Procedure D 4, 2,4-Diamino-5-(pyrrol-1-yl)quinazoline] registered a melting point of 248 to 250 °C.

In the case of `Nc1ncnc2cccc(Oc3ccc(F)cc3)c12` [Similar synthetic processes 1, 4-Amino-5-(4-fluorophenoxy)quinazoline], the melting point fell in the range of 188 to 190 °C.

In general, solubility refers to how much of the substance goes into solution per volume. A word on the melting point: it is the temperature of the solid-liquid transition.
